Structures are written as SMILES. A value given as a limit tells only on which side of the number the result lay.

19 compounds from ChEMBL document CHEMBL4396875, “Hybridization of β-Adrenergic Agonists and Antagonists Confers G Protein Bias” (J Med Chem, 2019) can be followed below.

What all share (format): cell-based
The target of assay [1] is Beta-1 adrenergic receptor (Mus musculus, UniProt P34971). The assay is described as follows: Displacement of [3H]-CGP-12177 from murine beta1-adrenergic receptor expressed in HEK293T cells after 60 mins by radioligand competition binding assay. (In general: In a radioligand displacement assay an active substance lowers the binding of a labelled ligand.)
Sequence of Beta-1 adrenergic receptor (Mus musculus, UniProt P34971) (P34971 whole entry): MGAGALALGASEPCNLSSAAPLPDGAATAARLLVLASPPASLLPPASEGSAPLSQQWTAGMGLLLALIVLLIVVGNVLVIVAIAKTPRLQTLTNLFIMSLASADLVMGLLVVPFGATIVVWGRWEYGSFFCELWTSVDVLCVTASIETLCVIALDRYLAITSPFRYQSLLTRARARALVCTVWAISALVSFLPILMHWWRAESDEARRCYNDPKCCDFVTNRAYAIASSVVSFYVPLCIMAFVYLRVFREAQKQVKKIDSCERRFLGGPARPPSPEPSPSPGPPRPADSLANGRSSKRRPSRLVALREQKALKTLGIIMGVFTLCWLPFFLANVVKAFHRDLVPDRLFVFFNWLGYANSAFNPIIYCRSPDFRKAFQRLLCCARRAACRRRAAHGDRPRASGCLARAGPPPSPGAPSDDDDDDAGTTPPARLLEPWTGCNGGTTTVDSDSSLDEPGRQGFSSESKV
Assay [2] concerns the target T1, Beta-2 adrenergic receptor (Homo sapiens, UniProt P07550). The assay is described as follows: Displacement of [3H]-CGP-12177 from human beta2-adrenergic receptor expressed in CHO cells after 60 mins by radioligand competition binding assay.
Assay [3] deals with T2, Beta-1 adrenergic receptor (Homo sapiens, UniProt P08588). As to the kind of experiment: Agonist activity at beta1-adrenergic receptor (unknown origin) expressed in HEK293T cells harboring Rluc2-117-GalphaS/GFP10-Ggamma/Gbeta1 assessed as activation of GalphaS incubated for 5 mins in presence of coelenterazine 400a by BRET assay. (In BRET a luciferase serves as donor, and the signal depends on an acceptor being close.)
T2 sequence (P08588 whole entry): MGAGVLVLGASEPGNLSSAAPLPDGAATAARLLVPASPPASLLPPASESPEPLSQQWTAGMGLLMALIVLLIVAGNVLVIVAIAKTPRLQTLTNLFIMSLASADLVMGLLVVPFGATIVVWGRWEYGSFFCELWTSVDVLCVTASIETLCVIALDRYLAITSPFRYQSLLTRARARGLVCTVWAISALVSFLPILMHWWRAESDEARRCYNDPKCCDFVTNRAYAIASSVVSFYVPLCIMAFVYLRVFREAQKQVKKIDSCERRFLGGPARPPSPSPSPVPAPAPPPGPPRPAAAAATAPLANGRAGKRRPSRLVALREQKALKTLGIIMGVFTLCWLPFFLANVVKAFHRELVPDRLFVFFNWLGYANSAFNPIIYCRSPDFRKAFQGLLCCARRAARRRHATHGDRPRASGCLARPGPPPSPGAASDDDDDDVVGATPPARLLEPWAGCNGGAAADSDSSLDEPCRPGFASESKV

For assay [4], the target named is T2, Beta-1 adrenergic receptor. As to the kind of experiment: Agonist activity at beta1-adrenergic receptor (unknown origin) expressed in HEK293T cells harboring GFP/Rluc2-tagged beta-arrestin2 assessed as increase in beta-arrestin2 recruitment incubated for 5 mins in presence of coelenterazine 400a by BRET assay. (Activated receptors often draw arrestin, which recruitment assays turn into a signal.)

The target of assay [5] is T2, Beta-1 adrenergic receptor. The assay is described as follows: Agonist activity at beta1-adrenergic receptor (unknown origin) expressed in HEK293T cells harboring GFP/Rluc2-tagged beta-arrestin2 assessed as increase in beta-arrestin2 recruitment incubated for 5 mins in presence of GRK2 and coelenterazine 400a by BRET assay.
In assay [6] the target is T2, Beta-1 adrenergic receptor. As to the kind of experiment: Agonist activity at beta1-adrenergic receptor (unknown origin) expressed in HEK293T cells harboring GFP/Rluc2-tagged beta-arrestin2 assessed as increase in beta-arrestin2 recruitment incubated for 5 mins in presence of GRK5 and coelenterazine 400a by BRET assay.
In assay [7] the target is T1, Beta-2 adrenergic receptor. As to the kind of experiment: Agonist activity at beta2-adrenergic receptor (unknown origin) expressed in HEK293T cells harboring Rluc2-117-GalphaS/GFP10-Ggamma/Gbeta1 assessed as activation of GalphaS incubated for 5 mins in presence of coelenterazine 400a by BRET assay.
Assay [8] addresses T1, Beta-2 adrenergic receptor. As to the kind of experiment: Agonist activity at beta2-adrenergic receptor (unknown origin) expressed in HEK293T cells harboring GFP/Rluc2-tagged beta-arrestin2 assessed as increase in beta-arrestin2 recruitment incubated for 5 mins in presence of coelenterazine 400a by BRET assay.
For assay [9], the target named is T1, Beta-2 adrenergic receptor. The assay is described as follows: Agonist activity at beta2-adrenergic receptor (unknown origin) expressed in HEK293T cells harboring GFP/Rluc2-tagged beta-arrestin2 assessed as increase in beta-arrestin2 recruitment incubated for 5 mins in presence of GSK2 and coelenterazine 400a by BRET assay.
Assay [10] addresses T1, Beta-2 adrenergic receptor. As to the kind of experiment: Agonist activity at beta2-adrenergic receptor (unknown origin) expressed in HEK293T cells harboring GFP/Rluc2-tagged beta-arrestin2 assessed as increase in beta-arrestin2 recruitment incubated for 5 mins in presence of GSK5 and coelenterazine 400a by BRET assay.

T1 sequence (P07550 whole entry): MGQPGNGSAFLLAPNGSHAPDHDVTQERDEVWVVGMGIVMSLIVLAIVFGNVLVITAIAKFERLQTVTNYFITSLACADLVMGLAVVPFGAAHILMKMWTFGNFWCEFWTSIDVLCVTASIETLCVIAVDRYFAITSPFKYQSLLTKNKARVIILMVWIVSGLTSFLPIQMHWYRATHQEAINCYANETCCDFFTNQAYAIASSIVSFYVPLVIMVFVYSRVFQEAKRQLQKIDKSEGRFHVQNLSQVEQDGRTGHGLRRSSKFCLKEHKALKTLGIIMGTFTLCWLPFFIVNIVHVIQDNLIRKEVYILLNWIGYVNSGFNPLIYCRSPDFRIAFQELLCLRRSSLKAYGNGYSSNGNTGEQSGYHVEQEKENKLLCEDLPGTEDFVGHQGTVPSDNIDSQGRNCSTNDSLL

By Ki is commonly meant the dissociation constant of the complex between target and ligand, obtained from inhibition or displacement. A low value points to a stronger hold on the target. On to `CC(C)NCCCOc1ccc(O)c(O)c1`, for which the figures for the Ki in assay [1] and in assay [2] were greater than 10 µM and 6.9 µM, respectively.
The matching figures for `CC(C)NC[C@@H](O)COc1ccc(O)c(O)c1`: 0.86 µM and 0.42 µM.
In [1], `OCc1cc(C(O)CNCCCCCCOCCCCc2ccccc2)ccc1O` (racemic) [SALMETEROL] came in with a Ki of 0.55 µM.
In the case of `COc1ccccc1OCCNC[C@H](O)Cc1ccc(O)c(O)c1`, the values for the Ki in [1] and in [2] were greater than 10 µM and 5.2 µM, respectively.
Take `COc1cc(CCNC[C@H](O)c2ccc(O)c(O)c2)ccc1OCCCc1ccccc1`: the EC50 was 2 µM in assay [3] (read-out: pEC50 (converted)); 0.794 µM in assay [4]; 0.794 µM in [5]; 0.501 µM in assay [6]; 0.1 µM in [7]; 0.724 µM in assay [8]. The EC50 in assay [9] is 0.501 µM; in assay [10] it was 0.417 µM.
As for `COc1ccccc1OCCNCCCOc1ccc(O)c(O)c1`, the Ki in assay [1] was greater than 10 µM; in assay [2], 3.8 µM.
The matching figures for `COc1cc(CCNC[C@@H](O)COc2ccc(O)c(O)c2)ccc1OCCCc1ccccc1`: 0.31 µM and 0.12 µM.
The matching figures for `COc1ccccc1OCCNCCCOc1cccc2[nH]c3ccccc3c12`: 0.024 µM and 0.0054 µM.
For the compound `COc1ccccc1OCCNC[C@H](O)c1ccc(O)c(O)c1`, the EC50 in assay [3] (read-out: pEC50 (converted)) is 0.0398 µM; in assay [4] it was 0.0794 µM; in [5], 0.0631 µM; in assay [6] it was 0.0513 µM; in assay [7] it was 0.0631 µM; in assay [8], 0.269 µM. Also, the values for the EC50 in assay [9] and in assay [10] were 0.158 µM and 0.1 µM, respectively.
Regarding `COc1ccccc1OCCNC[C@H](O)COc1ccc(O)c(O)c1`, the Ki in [1] turned out to be 0.012 µM; in assay [2] it was 0.021 µM. Also, the EC50 in assay [3] (read-out: EC50) was 0.3 to 0.8 µM; in assay [3] (read-out: pEC50 (converted)) it was 0.794 µM; in [4], 0.316 µM; in assay [5], 0.398 µM; in assay [6], 0.398 µM; in assay [7], 12.6 µM. Further, the figures for the EC50 in [9] and in assay [10] were 0.794 µM and 0.631 µM, respectively.
Turning to `CC(C)NC[C@H](O)COc1ccc(O)c(O)c1`, the Ki in assay [1] was 0.014 µM; in [2], 0.012 µM. Also, the EC50 in [3] (read-out: pEC50 (converted)) was 0.631 µM; in assay [4] it was 0.631 µM; in assay [5], 1 µM; in assay [6] it was 0.316 µM; in assay [7], 0.794 µM; in [9], 0.316 µM. The EC50 in [10] is 0.251 µM.
For `COc1ccccc1OCCNCCc1cccc2[nH]c3ccccc3c12`, the Ki in assay [1] amounted to 0.33 µM; in [2], 0.026 µM.
`COc1ccccc1OCCNC[C@@H](O)c1cccc2[nH]c3ccccc3c12`: the inhibitory constant (Ki) was found to be 0.34 µM in assay [1] and 0.17 µM in assay [2].
The matching figures for `COc1ccccc1OCCNC[C@@H](O)COc1ccc(O)c(O)c1`: 7.4 µM and 7.9 µM.
Take `COc1ccccc1OCCNCCCc1ccc(O)c(O)c1`: the values for the Ki in assay [1] and in assay [2] were greater than 10 µM and 0.92 µM, respectively.
The matching figures for `COc1ccccc1OCCNC[C@@H](O)Cc1ccc(O)c(O)c1`: 2.4 µM and 0.74 µM.
As to `COc1cc(CCNC[C@H](O)COc2ccc(O)c(O)c2)ccc1OCCCc1ccccc1`, the inhibition constant (Ki) in assay [1] stood at 0.0065 µM; in assay [2] it was 0.0072 µM. For the same compound, the EC50 in assay [3] (read-out: pEC50 (converted)) was 2.51 µM; in assay [4], 10 µM; in assay [5], 2.51 µM; in assay [6], 7.94 µM; in assay [7], 12.6 µM; in [10] it was 2 µM.
As to `COc1ccccc1OCCNC[C@H](O)c1cccc2[nH]c3ccccc3c12`, the values for the Ki in assay [1] and in [2] were 0.0066 µM and 0.0033 µM, respectively.
The matching figures for `COc1cc(CCNCCCOc2ccc(O)c(O)c2)ccc1OCCCc1ccccc1`: 1.2 µM and 0.7 µM.
